Reference: the METLIN SMRT retention time set (Domingo-Almenara et al. 2019)

Test: gradient 5% acetonitrile 3 min, to 50% in 2 min, to 85% in 15 min, held 3 min, 100 µL/min
Settings: column: Zorbax Extend-C18 2.1 x 50 mm; eluents: water / acetonitrile, 0.1% formic acid
Outline: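 A Zorbax Extend-C18 column (2.1 × 50 mm, 1.8 μm) run at 100 μL/min with water and acetonitrile, both containing 0.1% formic acid, separated mixtures of ~100 pure standards. The HPLC was coupled to a quadrupole time-of-flight mass spectrometer operated in positive and negative ionization mode, with dead and dwell volumes of 40 μL and 900 μL. Each retention time was taken from a computationally picked adduct peak that was then manually inspected.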
Compound O=C(Nc1ccc2c(c1)OCO2)Nc1ccc2c(c1)N(C(=O)c1ccccc1)CC2 has an RP-LC retention time of 882 s. O=S(=O)(c1ccc(-c2csc(Nc3cccc4ccccc34)n2)cc1)N1CCCCC1 gave an RP-LC retention time of 1280 s. CCNc1cc(N2CCC(CCC(=O)NCc3cccc(Cl)c3)CC2)ncn1 gave an RP-LC retention time of 678 s. CCN1C(=O)c2cccnc2Sc2cc(CNC(=O)c3ccc(OC)c(OC)c3)ccc21 gave an RP-LC retention time of 711 s. For Cc1cc2nc(C(F)(F)F)c(=O)n(C(C)C(=O)N3CCN(c4ccccn4)CC3)c2cc1C (centres undefined), the RP-LC retention time was 796 s. Compound CCOc1ccc(N2CC(c3nnc(NC(=O)CC4CCCCC4)o3)CC2=O)cc1 (centres undefined) has an RP-LC retention time of 804 s. Cc1nc(-c2cn(C)c3ncccc23)sc1C(=O)NCc1ccccc1F showed an RP-LC retention time of 874 s. Work on CCC(c1cccs1)N1C(=O)[C@H]2CN(S(=O)(=O)c3ccccc3C)C[C@H]2C1=O (some centres undefined) yielded an RP-LC retention time of 1020 s. Cc1cccc(NC(=O)C2CCCCN2S(=O)(=O)c2cccs2)n1 (centres undefined) gave an RP-LC retention time of 807 s. O=C(C1CCCN(c2ncnc3c2nc2n3CCCCC2)C1)N1CCC(N2CCCCC2)CC1 (centres undefined) gave an RP-LC retention time of 590 s. For COC(=O)c1cc(S(=O)(=O)N2CCCC2C(=O)Nc2ccc(Cl)cc2C)cn1C (centres undefined), the RP-LC retention time was 958 s. COCC(C)(O)CNC(=O)c1ccc(F)c(F)c1 (centres undefined) showed an RP-LC retention time of 634 s. CCCc1ccc(S(=O)(=O)N2C[C@@H](F)C[C@H]2C(=O)N2CCCCC2)cc1 gave an RP-LC retention time of 937 s. Fc1ccc(C2Cn3nnc(-c4nc(-c5cccc(Cl)c5)no4)c3CO2)cc1 (centres undefined) gave an RP-LC retention time of 1260 s. In the case of Cc1ccc(N2C(=O)C3N=NN(Cc4nc(-c5ccccc5Br)no4)C3C2=O)cc1C (centres undefined), the RP-LC retention time was 1030 s. For CC(C)OCCCNC(=O)C1CCCCC(=O)N1 (centres undefined), the RP-LC retention time was 617 s. With O=C(CCn1cnc2cc(-c3noc(-c4cccc5[nH]ccc45)n3)ccc21)N1CCCC1 the RP-LC retention time was 701 s. CSc1ccc(N2C(C)=NS(=O)(=O)c3cccnc32)cc1 gave an RP-LC retention time of 811 s. COC(=O)c1cc(OCC(=O)Nc2ccc(OC)c(OC)c2)c2cc(F)ccc2n1 showed an RP-LC retention time of 756 s. In the case of CCOc1ccc(NC(=O)c2cn3c(n2)CCCC3)cc1, the RP-LC retention time was 614 s. Work on CC1CCCN(CC2CCN(S(=O)(=O)Cc3cc(F)cc(F)c3)CC2)C1 (centres undefined) yielded an RP-LC retention time of 666 s. With Cc1cc(C)cc(S(=O)(=O)N2CCC(C(=O)NCc3csc(-c4cccs4)n3)CC2)c1 the RP-LC retention time was 967 s. Compound COc1ccc(-c2cc3n(n2)CCCN(C(=O)NCc2ccco2)C3)cc1 has an RP-LC retention time of 743 s. Work on Cc1nc(CCNC(=O)C2CCN(C(=O)c3ccc(F)cc3)CC2)cs1 yielded an RP-LC retention time of 826 s. In the case of Cc1ccccc1NC(=O)N1CCC(n2cnc3c(Cl)cccc3c2=O)CC1, the RP-LC retention time was 791 s. CCCN1C(=O)c2cc(S(=O)(=O)NCc3ccccc3F)ccc2Oc2cccnc21 gave an RP-LC retention time of 1030 s. Work on O=C(Cn1nc2c3sc(N4CCCCC4)nc3ncn2c1=O)Nc1cc(F)cc(F)c1 yielded an RP-LC retention time of 828 s. For Cn1cc(CN2CCC(C(=O)NCc3ccccc3F)CC2)c2cc(Cl)ccc21, the RP-LC retention time was 705 s. In the case of Cc1ccc(NC(=O)C2CC(=O)N(c3n[nH]c4ccccc34)C2)nc1 (centres undefined), the RP-LC retention time was 594 s. COc1cc(OC)c(NC(=O)N2CC(Cc3nc(-c4cnccn4)no3)C2)cc1Cl showed an RP-LC retention time of 733 s. Compound CC(=O)N1CCc2cc(S(=O)(=O)C(C)CC(=O)N3CCN(c4ccc(Cl)cc4)CC3)ccc21 (centres undefined) has an RP-LC retention time of 870 s. In the case of CCCN1CCN(S(=O)(=O)c2cc(-c3cc(C(F)(F)F)[nH]n3)sc2C)CC1, the RP-LC retention time was 707 s. With Cc1nc(CC(=O)NCc2ccc(F)cc2F)sc1C(=O)NCC(C)C the RP-LC retention time was 757 s. COc1ccc(CCNC(=O)CSc2c[nH]c3ccccc23)cc1OC showed an RP-LC retention time of 717 s. Work on O=C(NCc1ccc(C(F)(F)F)cc1)c1ccc(-c2cncnc2)nc1 yielded an RP-LC retention time of 782 s. Compound Cc1oc(-c2ccc(C(=O)NCCN(C)C)cc2)nc1CS(=O)c1ccccc1 (centres undefined) has an RP-LC retention time of 590 s. For O=C(NCc1ccc(F)cc1)C1(CCO)CCN(c2ncccn2)C1 (centres undefined), the RP-LC retention time was 609 s. Work on Cc1cc2[nH]c(=O)[nH]c2cc1S(=O)(=O)Nc1cccc(Cl)c1 yielded an RP-LC retention time of 690 s. In the case of CC(C)CNC(=O)CCc1nc2ccccc2n(CC(=O)NCc2ccccc2Cl)c1=O, the RP-LC retention time was 822 s. Compound CCc1ccc(CNC(=O)C2CCCN(c3ccc(=O)n(-c4ccc(OC)cc4)n3)C2)cc1 (centres undefined) has an RP-LC retention time of 871 s. COc1ccccc1N1CCN(S(=O)(=O)c2ccc3c(c2)CCCC(=O)N3)CC1 gave an RP-LC retention time of 809 s. In the case of O=C(Nc1ccccc1F)NC1CCN(C(=O)N2C[C@H]3C[C@H](C2)[C@H]2CCCC(=O)N2C3)CC1, the RP-LC retention time was 677 s. Compound CCOC(=O)C1CCN(c2c(S(=O)(=O)c3ccccc3)cnc3ccc(C)cc23)CC1 has an RP-LC retention time of 964 s. In the case of CCOC(=O)c1ccc(NC(=O)Cn2nc3c(Oc4ccccc4)nccn3c2=O)cc1, the RP-LC retention time was 852 s.
